Data taken from ChEMBL document CHEMBL6134864, “Discovery of FLT3-ITD Inhibitor Clifutinib: A Novel Biphenylacetylene Urea Derivative in Clinical Trials for the Treatment of Relapsed/Refractory FLT3-ITD+ Acute Myeloid Leukemia” (J Med Chem, 2025).

Tests used:
MV4-11 = experiment: cells; details: Homo sapiens, MV4-11, 72 h
Description: Antiproliferative activity against human MV4-11 cells assessed as inhibition of cell growth incubated for 72 hrs by celltiter-glo luminescent cell viability assay

[1] = Half life in rat plasma at 5 mg/kg, po measured up to 24 hrs by LC-MS/MS analysis; type: ADME, organism-based
[2] = Clearance in rat plasma at 5 mg/kg, po measured up to 24 hrs by LC-MS/MS analysis; type: ADME, organism-based
[3] = Cmax in rat plasma at 5 mg/kg, po measured up to 24 hrs by LC-MS/MS analysis; type: ADME, organism-based
[4] = AUClast in rat plasma at 5 mg/kg, po measured up to 24 hrs by LC-MS/MS analysis; type: ADME, organism-based
[5] = Oral bioavailability in rat plasma at 5 mg/kg measured up to 24 hrs by LC-MS/MS analysis; type: ADME, organism-based
hERG (KCNH2) = hERG (KCNH2) (Homo sapiens, UniProt Q12809); experiment: Inhibition of human ERG expressed in CHO cells at 30 uM by manual patch clamp assay relative to control; type: toxicity, cell-based; details: CHO cells expressing human ERG
BaF3 [6] = experiment: Antiproliferative activity against mouse BaF3 cells harbouring FLT3-ITD assessed as inhibition of cell growth incubated for 72 hrs by celltiter-glo luminescent cell viability assay; type: functional, cell-based; details: BaF3, 72 h
BaF3 [7] = experiment: Antiproliferative activity against mouse BaF3 cells harbouring FLT3-ITD-D835Y mutant assessed as inhibition of cell growth incubated for 72 hrs by celltiter-glo luminescent cell viability assay; type: functional, cell-based; details: BaF3, 72 h
BaF3 [8] = experiment: Antiproliferative activity against mouse BaF3 cells harbouring FLT3-ITD-D835V mutant assessed as inhibition of cell growth incubated for 72 hrs by celltiter-glo luminescent cell viability assay; type: functional, cell-based; details: BaF3, 72 h
BaF3 [9] = experiment: Antiproliferative activity against mouse BaF3 cells harbouring FLT3-ITD-D835I mutant assessed as inhibition of cell growth incubated for 72 hrs by celltiter-glo luminescent cell viability assay; type: functional, cell-based; details: BaF3, 72 h
BaF3 [10] = experiment: Antiproliferative activity against mouse BaF3 cells harbouring FLT3-ITD-N676D mutant assessed as inhibition of cell growth incubated for 72 hrs by celltiter-glo luminescent cell viability assay; type: functional, cell-based; details: BaF3, 72 h
BaF3 [11] = experiment: Antiproliferative activity against mouse BaF3 cells harbouring FLT3-ITD-Y842H mutant assessed as inhibition of cell growth incubated for 72 hrs by celltiter-glo luminescent cell viability assay; type: functional, cell-based; details: BaF3, 72 h
BaF3 [12] = experiment: Antiproliferative activity against mouse BaF3 cells harbouring FLT3-ITD-Y842R mutant assessed as inhibition of cell growth incubated for 72 hrs by celltiter-glo luminescent cell viability assay; type: functional, cell-based; details: BaF3, 72 h
BaF3 [13] = experiment: Antiproliferative activity against mouse BaF3 cells harbouring FLT3-ITD-F691L mutant assessed as inhibition of cell growth incubated for 72 hrs by celltiter-glo luminescent cell viability assay; type: functional, cell-based; details: BaF3, 72 h
BaF3 [14] = experiment: Antiproliferative activity against mouse BaF3 cells harbouring FLT3-ITD-F691I mutant assessed as inhibition of cell growth incubated for 72 hrs by celltiter-glo luminescent cell viability assay; type: functional, cell-based; details: BaF3, 72 h
BaF3 [15] = experiment: Antiproliferative activity against mouse BaF3 cells harbouring FLT3-D835Y mutant assessed as inhibition of cell growth incubated for 72 hrs by celltiter-glo luminescent cell viability assay; type: functional, cell-based; details: BaF3, 72 h
BaF3 [16] = experiment: Antiproliferative activity against mouse BaF3 cells harbouring FLT3-D835V mutant assessed as inhibition of cell growth incubated for 72 hrs by celltiter-glo luminescent cell viability assay; type: functional, cell-based; details: BaF3, 72 h
BaF3 [17] = experiment: Antiproliferative activity against wild type mouse BaF3 cells assessed as inhibition of cell growth incubated for 72 hrs by celltiter-glo luminescent cell viability assay; type: functional, cell-based; details: BaF3, 72 h
[18] = Antitumor activity against human […] cells harbouring FLT3-ITD xenografted in NOD/SCID mouse model assessed as tumor regression rate at 20 mg/kg/day, po measured for 8 days by caliper analysis relative to control; type: functional, MV4-11; details: time 8 day
BaF3 [19] = experiment: cells; details: Mus musculus, BaF3, 72 h
BaF3 [20] = experiment: cells; details: Mus musculus, BaF3, 72 h; remark: listed apart in the source
BaF3 [21] = experiment: cells; details: Mus musculus, BaF3, 72 h; remark: listed apart in the source
BaF3 [22] = experiment: cells; details: Mus musculus, BaF3, 72 h; remark: listed apart in the source
BaF3 [23] = experiment: cells; details: Mus musculus, BaF3, 72 h; remark: listed apart in the source
BaF3 [24] = experiment: cells; details: Mus musculus, BaF3, 72 h; remark: listed apart in the source
Description: Antiproliferative activity against mouse BaF3 cells harbouring FLT3-D83HY mutant assessed as inhibition of cell growth incubated for 72 hrs by celltiter-glo luminescent cell viability assay

MOLM-13 = experiment: Antitumor activity against human MOLM-13 cells xenografted in NOD/SCID mouse model assessed as tumor growth inhibition at 50 mg/kg/day, po by caliper analysis relative to control; type: functional; details: read-out: TGI

hERG (KCNH2), sequence (Q12809 whole entry): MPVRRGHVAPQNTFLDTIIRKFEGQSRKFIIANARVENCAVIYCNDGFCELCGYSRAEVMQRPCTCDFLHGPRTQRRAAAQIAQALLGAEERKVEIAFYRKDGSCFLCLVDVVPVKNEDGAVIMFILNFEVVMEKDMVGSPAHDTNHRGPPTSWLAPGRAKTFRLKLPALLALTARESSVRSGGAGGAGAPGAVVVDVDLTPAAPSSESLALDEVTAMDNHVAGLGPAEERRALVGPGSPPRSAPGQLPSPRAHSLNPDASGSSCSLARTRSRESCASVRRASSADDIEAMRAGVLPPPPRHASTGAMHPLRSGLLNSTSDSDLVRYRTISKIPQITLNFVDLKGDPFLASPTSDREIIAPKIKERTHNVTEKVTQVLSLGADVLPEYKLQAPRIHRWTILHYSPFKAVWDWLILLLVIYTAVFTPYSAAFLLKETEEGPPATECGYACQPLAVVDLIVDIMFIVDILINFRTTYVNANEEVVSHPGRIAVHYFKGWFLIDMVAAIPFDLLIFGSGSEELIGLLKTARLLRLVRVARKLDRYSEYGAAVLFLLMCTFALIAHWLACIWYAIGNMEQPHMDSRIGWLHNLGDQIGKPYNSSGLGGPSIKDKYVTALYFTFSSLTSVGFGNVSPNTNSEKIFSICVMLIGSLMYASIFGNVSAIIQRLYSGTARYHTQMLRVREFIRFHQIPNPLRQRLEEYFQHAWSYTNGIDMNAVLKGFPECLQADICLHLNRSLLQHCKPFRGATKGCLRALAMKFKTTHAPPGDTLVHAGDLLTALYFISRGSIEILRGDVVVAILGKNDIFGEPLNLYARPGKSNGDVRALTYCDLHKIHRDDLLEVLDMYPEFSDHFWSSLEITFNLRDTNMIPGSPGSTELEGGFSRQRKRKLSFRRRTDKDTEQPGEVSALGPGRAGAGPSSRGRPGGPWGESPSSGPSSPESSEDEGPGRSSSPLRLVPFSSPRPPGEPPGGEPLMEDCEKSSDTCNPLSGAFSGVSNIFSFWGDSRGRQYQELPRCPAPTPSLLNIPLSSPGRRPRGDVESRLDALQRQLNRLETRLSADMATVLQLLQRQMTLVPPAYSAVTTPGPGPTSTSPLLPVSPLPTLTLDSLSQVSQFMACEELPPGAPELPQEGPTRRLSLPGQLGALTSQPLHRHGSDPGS

| Structure (SMILES) | IC50 (MV4-11) [nM] | half-life [1] [h] | CL/F [2] [mL/min/kg] | Cmax [3] [ng/mL] | AUC(0-t) at 24 h [4] [ng·h/mL] | bioavailability [5] [%] | other results |
| --- | --- | --- | --- | --- | --- | --- | --- |
| CC(C)(C)c1cc(NC(=O)Nc2ccc(C#Cc3ccc(OCCCN4C[C@@H]5OCCO[C@@H]5C4)cc3)cc2)no1 | 3.1 |  |  |  |  |  |  |
| CC(C)(C)c1cc(NC(=O)Nc2ccc(C#Cc3ccc(OCCCN4CCOCC4)cc3)nc2)no1 | > 1000 |  |  |  |  |  |  |
| CC(C)(C)c1cc(NC(=O)Nc2ccc(C#Cc3cnn4c(OCCCN5CCOCC5)ccnc34)cc2)no1 | 1.9 |  |  |  |  |  |  |
| CC(C)(C)c1cc(NC(=O)Nc2ccc(C#Cc3ccc(OCCCN4CCOCC4)cc3)cc2C#N)no1 | > 1000 |  |  |  |  |  |  |
| COc1cc(C#Cc2ccc(OCCCN3CCOCC3)cc2)ccc1NC(=O)Nc1cc(C(C)(C)C)on1 | 551 |  |  |  |  |  |  |
| CC(C)(C)c1cc(NC(=O)Nc2ccc(C#Cc3ccc(OCCCN4CCOCC4)c(Cl)c3)cc2)no1 | 9.8 |  |  |  |  |  |  |
| CC(C)(C)c1cc(NC(=O)Nc2ccc(C#Cc3ccc(OCCCN4CCOCC4)c(O)c3)cc2)no1 | 0.9 |  |  |  |  |  |  |
| CN1CCN(CCOc2ccc(C#Cc3ccc(NC(=O)Nc4cc(C(C)(C)C)on4)cc3)cc2)CC1 | 1.6 | 2.06 | 68.2 | 133 | 534 | 48.4 |  |
| CC(C)(C)c1cc(NC(=O)Nc2ccc(C#Cc3ccc(OCCCN4CCOCC4)cc3O)cc2)no1 | 25.5 |  |  |  |  |  |  |
| CC(C)(C)c1cc(NC(=O)Nc2ccc(C#Cc3ccc(OCCCN4CCOCC4)cc3F)cc2)no1 | 5.2 | 5.86 | 4.83 | 1370 | 11300 | 69.3 | inhibition at 30 µM (hERG (KCNH2)): 36.3% |
| CC(C)(C)c1cc(NC(=O)Nc2ccc(C#Cc3ccc(OCCCN4CCOCC4)c(C(F)(F)F)c3)cc2)no1 | 17.7 |  |  |  |  |  |  |
| CN1CCN(CCCOc2ccc(C#Cc3ccc(NC(=O)Nc4cc(C(C)(C)C)on4)cc3)cc2)CC1 | 2.4 | 5.15 | 44.8 | 100 | 756 | 42 |  |
| CC(C)(C)c1cc(NC(=O)Nc2ccc(C#Cc3ccc(OCCN4C[C@@H]5OCCO[C@@H]5C4)cc3)cc2)no1 | 1.1 | 3.9 | 7.78 | 862 | 6770 | 63.6 |  |
| CC(C)(C)c1cc(NC(=O)Nc2ccc(C#Cc3ccc(OCCCN4CCOCC4)c(F)c3)cc2)no1 | 4.6 |  |  |  |  |  |  |
| CC(C)(C)c1cc(NC(=O)Nc2ccc(-c3cn4c(n3)sc3cc(OCCN5CCOCC5)ccc34)cc2)no1 [QUIZARTINIB] | 0.9 | 5.22 | 7.33 | 741 | 6320 | 57.6 | IC50 (BaF3 [6]): 0.8 nM; IC50 (BaF3 [7]): 36 nM; IC50 (BaF3 [8]): 112 nM; IC50 (BaF3 [9]): 280 nM; IC50 (BaF3 [10]): 5.5 nM; IC50 (BaF3 [11]): 28.8 nM; IC50 (BaF3 [12]): 20.8 nM; IC50 (BaF3 [13]): 102 nM; IC50 (BaF3 [14]): 136 nM; IC50 (BaF3 [15]): 3.6 nM; IC50 (BaF3 [16]): 28.7 nM; IC50 (BaF3 [17]): > 1000 nM; Activity [18]: 88.6%; IC50 (BaF3 [19]): 3.1 nM; IC50 (BaF3 [20]): 4.1 nM; IC50 (BaF3 [21]): 73.1 nM; IC50 (BaF3 [22]): 1.6 nM; IC50 (BaF3 [23]): 23.2 nM; IC50 (BaF3 [24]): 7.1 nM |
| COc1cc(C#Cc2ccc(NC(=O)Nc3cc(C(C)(C)C)on3)cc2)ccc1OCCCN1CCOCC1 | 0.8 | 3.55 | 26.8 | 194 | 1270 | 40.8 |  |
| CC(C)(C)c1cc(NC(=O)Nc2ccc(C#Cc3ccc(OCCCN4CCOCC4)cc3Cl)cc2)no1 | 426 |  |  |  |  |  |  |
| CC(C)(C)c1cc(NC(=O)Nc2ccc(C#Cc3ccc(OCCCN4CCOCC4)cc3)cc2F)no1 | 4.8 |  |  |  |  |  |  |
| CN(C)C1CCN(CCCOc2ccc(C#Cc3ccc(NC(=O)Nc4cc(C(C)(C)C)on4)cc3)cc2)CC1 | 8 |  |  |  |  |  |  |
| CC(C)(C)c1cc(NC(=O)Nc2ccc(C#Cc3ccc(OCCN4CCOCC4)cc3)cc2)no1 | 1.4 | 4.84 | 22.8 | 522 | 1790 | 49.2 |  |
| Nc1ccn([C@@H]2O[C@H](CO)[C@@H](O)[C@@H]2O)c(=O)n1 [CYTARABINE] |  |  |  |  |  |  | inhibition in vivo at 50 mg/kg/day (MOLM-13): 36% |
| CN(C)C1CCN(CCOc2ccc(C#Cc3ccc(NC(=O)Nc4cc(C(C)(C)C)on4)cc3)cc2)CC1 | 34.4 |  |  |  |  |  |  |
| CC(C)(C)c1cc(NC(=O)Nc2ccc(C#Cc3ccc(OCCCN4CCC5(COC5)C4)cc3)cc2)no1 | 13.8 |  |  |  |  |  |  |
